These results are taken from patent US11311542B2, “Inhibitors of cyclin dependent kinase 7 (CDK7)” (Syros Pharmaceuticals, Inc., priority 2018, dated 2022).

Read-outs that look alike come from different tables or passages of the source.

In assay [1] the target is CDK7/Cyclin H/MAT1 complex (Homo sapiens, UniProt P50613). The assay is described as follows: CDK7 kinase inhibition assay (Caliper/LabChip EZ Reader).
Description: (§2) Compounds described herein were assayed for inhibition of CDK7, CDK9, CDK12, and CDK2 activity at Biortus Biosciences (Jiangyin, Jiangsu Province, P.R. of China) using kinase assays for each CDK developed with a Caliper/LabChip EZ Reader (Perkin Elmer, Waltham, Mass.).
(§3) Furthermore, the CDK9 inhibition assay used CDK9/Cyclin T1 complex (8 nM) and “5-FAM-CDK9tide” peptide substrate (2 μM, synthesized fluorophore-labeled peptide with the following sequence: 5-FAM-GSRTPMY-NH2 (SEQ ID NO:2) where 5-FAM is defined above and NH2 signifies a C-terminal amide) with 10 mM MgCl2 in the buffer composition listed above. The CDK12 inhibition assay used CDK12 (aa686-1082)/Cyclin K complex (50 nM) and “5-FAM-CDK9tide” (2 μM) as defined above, with 2 mM MgCl2 in the buffer composition above. Additionally, the CDK2 inhibition assay used CDK2/Cyclin E1 complex (0.5 nM) and “5-FAM-CDK7tide” (2 μM; defined above) with 2 mM MgCl2 in the buffer composition above.
(§4) The incubation period at 27° C. for each CDK inhibition assay was chosen such that the fraction of phosphorylated peptide product produced in each assay, relative to the total peptide concentration, was approximately 20% (±5%) for the uninhibited kinase (35 min. for CDK7, 35 min. for CDK2, 3 hr. for CDK12, 15 min. for CDK9).
The next assay has as its target CDK2/Cyclin E1 complex (Homo sapiens, UniProt P24941). The assay can be described thus: CDK2 kinase inhibition assay (Caliper/LabChip EZ Reader).
The subject of a further assay is HCC70 cells. The assay is described as follows: Inhibition of cell proliferation (CyQUANT Direct), HCC70. The class given is cell-based, human. The conditions noted are these: HCC70, 72-hour. The procedure:
(§1) HCC70 and MB453 cells are cell lines derived from human triple negative breast cancer COV318 and COV504 cells are cell lines derived from human ovarian cancer. Representative compounds of the invention were tested at different concentrations (from 4 μM to 126.4 pM; 0.5 log serial dilutions) for their ability to inhibit the proliferation of each of these cell lines. Known CDK inhibitors dinaciclib or N-((1S,3R)-3-((5-chloro-4-(1H-indol-3-yl) pyrimidin-2-yl)amino)cyclohexyl)-5-((E)-4-(dimethylamino)but-2-enamido)picolinamide and triptolide were used as positive controls. Cells were seeded at approximately 2,000 cells/well and grown in ATCC-formulated RPMI-1640 Medium (ATCC 30-2001)+10% FBS. The cells were cultured at 37° C. in a humidified chamber in the presence of 5% CO2. Proliferation assays were conducted over a 72-hour time period. CyQUANT® Direct Cell Proliferation Assay (Life Technologies, Chicago, Ill. USA) was used to assess the anti-proliferative effects of the compounds following manufacturer's directions and utilizing the reagents supplied with the CyQUANT® Direct Cell kit.

A further assay deals with COV504 cells. The assay is described as follows: Inhibition of cell proliferation (CyQUANT Direct), COV504. The class given is cell-based, human. To be noted: COV504, 72-hour. As to the method: as §1
In another assay the test system is COV318 cells. The assay can be described thus: Inhibition of cell proliferation (CyQUANT Direct), COV318. The format is cell-based, human. The conditions noted are these: COV318, 72-hour. The procedure: as §1
In a further assay the test system is MB453 cells. The assay is described as follows: Inhibition of cell proliferation (CyQUANT Direct), MB453. The format is cell-based, human. To be noted: MB453, 72-hour. The procedure: as §1
The target in the next assay is CDK9/Cyclin T1 complex (Homo sapiens, UniProt P50750). The assay can be described thus: CDK9 kinase inhibition assay (Caliper/LabChip EZ Reader).
CDK9/Cyclin T1 complex, sequence (P50750 whole entry, the tested form may be a part): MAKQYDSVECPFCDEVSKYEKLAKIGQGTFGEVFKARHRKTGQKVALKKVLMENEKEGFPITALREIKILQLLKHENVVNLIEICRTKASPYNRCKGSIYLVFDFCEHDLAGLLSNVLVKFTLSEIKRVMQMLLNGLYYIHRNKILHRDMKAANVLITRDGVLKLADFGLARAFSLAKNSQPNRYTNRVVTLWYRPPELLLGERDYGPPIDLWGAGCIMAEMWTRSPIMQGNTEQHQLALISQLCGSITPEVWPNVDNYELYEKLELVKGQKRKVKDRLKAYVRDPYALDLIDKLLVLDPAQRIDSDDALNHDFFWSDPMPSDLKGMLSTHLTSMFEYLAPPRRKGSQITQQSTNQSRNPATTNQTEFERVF
CDK9/Cyclin T1 complex, sequence (O60563 whole entry partner, the tested form may be a part): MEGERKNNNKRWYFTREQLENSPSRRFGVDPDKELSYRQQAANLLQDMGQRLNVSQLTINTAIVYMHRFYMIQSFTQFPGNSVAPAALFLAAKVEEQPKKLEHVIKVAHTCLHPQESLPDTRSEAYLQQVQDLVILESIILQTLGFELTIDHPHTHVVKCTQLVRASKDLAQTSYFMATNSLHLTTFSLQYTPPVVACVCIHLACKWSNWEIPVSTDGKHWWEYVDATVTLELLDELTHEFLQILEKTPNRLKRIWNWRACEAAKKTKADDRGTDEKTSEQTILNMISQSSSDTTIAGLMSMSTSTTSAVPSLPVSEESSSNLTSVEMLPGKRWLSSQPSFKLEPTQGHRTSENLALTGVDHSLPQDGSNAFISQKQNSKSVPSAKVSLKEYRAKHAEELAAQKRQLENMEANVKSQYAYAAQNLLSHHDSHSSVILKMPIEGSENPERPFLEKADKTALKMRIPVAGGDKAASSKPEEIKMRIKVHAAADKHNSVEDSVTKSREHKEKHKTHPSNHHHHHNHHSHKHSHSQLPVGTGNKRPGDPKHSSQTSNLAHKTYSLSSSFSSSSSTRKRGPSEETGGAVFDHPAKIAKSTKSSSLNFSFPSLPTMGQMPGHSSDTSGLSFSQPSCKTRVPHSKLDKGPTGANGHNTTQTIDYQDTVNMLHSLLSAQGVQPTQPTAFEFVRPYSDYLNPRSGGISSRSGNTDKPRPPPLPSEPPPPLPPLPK
For assay [2], the target named is CDK12 (aa686-1082)/Cyclin K complex (Homo sapiens, UniProt Q9NYV4). The assay is described as follows: CDK12 kinase inhibition assay (Caliper/LabChip EZ Reader).
CDK12 (aa686-1082)/Cyclin K complex, sequence (Q9NYV4 686-1082): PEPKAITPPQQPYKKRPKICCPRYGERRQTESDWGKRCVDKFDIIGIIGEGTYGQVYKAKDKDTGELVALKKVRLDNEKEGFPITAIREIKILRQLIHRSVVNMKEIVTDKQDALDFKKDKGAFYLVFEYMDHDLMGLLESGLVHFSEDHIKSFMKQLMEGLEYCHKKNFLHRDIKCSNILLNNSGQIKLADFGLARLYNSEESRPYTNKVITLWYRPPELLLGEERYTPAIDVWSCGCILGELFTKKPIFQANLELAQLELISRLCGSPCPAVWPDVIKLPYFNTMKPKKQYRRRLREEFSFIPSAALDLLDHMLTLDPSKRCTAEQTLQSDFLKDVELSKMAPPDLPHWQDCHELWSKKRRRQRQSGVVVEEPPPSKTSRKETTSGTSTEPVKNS
CDK12 (aa686-1082)/Cyclin K complex, sequence (O75909 whole entry partner, the tested form may be a part): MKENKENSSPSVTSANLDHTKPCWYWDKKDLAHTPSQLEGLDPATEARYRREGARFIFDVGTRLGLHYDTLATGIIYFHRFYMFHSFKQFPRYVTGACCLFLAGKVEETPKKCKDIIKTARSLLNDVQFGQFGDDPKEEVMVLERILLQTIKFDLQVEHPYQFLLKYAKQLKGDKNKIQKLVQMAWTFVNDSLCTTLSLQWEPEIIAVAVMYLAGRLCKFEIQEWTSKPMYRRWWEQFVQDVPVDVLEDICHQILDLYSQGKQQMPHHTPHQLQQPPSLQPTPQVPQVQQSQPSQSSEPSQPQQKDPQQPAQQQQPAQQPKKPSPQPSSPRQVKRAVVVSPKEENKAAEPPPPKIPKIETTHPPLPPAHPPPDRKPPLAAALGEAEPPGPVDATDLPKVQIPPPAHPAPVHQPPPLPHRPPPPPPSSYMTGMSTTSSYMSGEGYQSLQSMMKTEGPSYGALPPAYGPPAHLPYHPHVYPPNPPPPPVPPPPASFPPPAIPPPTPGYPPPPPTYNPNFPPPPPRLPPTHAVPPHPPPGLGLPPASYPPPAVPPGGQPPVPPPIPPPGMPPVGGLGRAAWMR
The mark [3] stands for this setting: read-out: CDK7 IC50, CDK7/Cyclin H/MAT1 6 nM, ATP 2 mM, 35 min at 27° C.
Where [4] appears, read: read-out: CDK2 IC50, CDK2/Cyclin E1 0.5 nM, ATP 2 mM, 35 min at 27° C.
[5] abbreviates: read-out: CDK9 IC50, CDK9/Cyclin T1 8 nM, ATP 2 mM, 15 min at 27° C.
The mark [6] stands for this setting: read-out: CDK12 IC50, CDK12 (aa686-1082)/Cyclin K 50 nM, ATP 2 mM, 3 hr at 27° C.

By IC50 is commonly meant the concentration that inhibits the measured activity by half.

CDK7/Cyclin H/MAT1 complex, sequence (P50613 whole entry): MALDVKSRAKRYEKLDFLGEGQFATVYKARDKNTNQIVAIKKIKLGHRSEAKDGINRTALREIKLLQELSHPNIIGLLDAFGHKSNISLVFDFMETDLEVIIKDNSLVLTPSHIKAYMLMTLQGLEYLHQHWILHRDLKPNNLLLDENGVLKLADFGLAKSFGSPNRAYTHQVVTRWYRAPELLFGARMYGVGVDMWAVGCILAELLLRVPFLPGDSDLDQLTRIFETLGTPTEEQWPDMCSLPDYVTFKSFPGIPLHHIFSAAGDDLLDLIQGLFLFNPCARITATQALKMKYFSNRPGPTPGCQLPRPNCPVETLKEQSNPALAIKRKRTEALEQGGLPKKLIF
CDK7/Cyclin H/MAT1 complex, sequence (P51946 whole entry partner): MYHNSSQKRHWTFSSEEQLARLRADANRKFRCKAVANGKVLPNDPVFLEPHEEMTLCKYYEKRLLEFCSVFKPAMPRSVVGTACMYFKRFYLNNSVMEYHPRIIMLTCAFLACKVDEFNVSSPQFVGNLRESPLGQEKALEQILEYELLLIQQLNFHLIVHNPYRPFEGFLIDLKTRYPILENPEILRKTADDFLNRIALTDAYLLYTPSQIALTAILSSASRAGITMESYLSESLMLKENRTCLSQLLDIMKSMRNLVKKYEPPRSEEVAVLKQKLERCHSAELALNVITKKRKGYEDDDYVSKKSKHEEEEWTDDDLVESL
CDK7/Cyclin H/MAT1 complex, sequence (P51948 whole entry partner): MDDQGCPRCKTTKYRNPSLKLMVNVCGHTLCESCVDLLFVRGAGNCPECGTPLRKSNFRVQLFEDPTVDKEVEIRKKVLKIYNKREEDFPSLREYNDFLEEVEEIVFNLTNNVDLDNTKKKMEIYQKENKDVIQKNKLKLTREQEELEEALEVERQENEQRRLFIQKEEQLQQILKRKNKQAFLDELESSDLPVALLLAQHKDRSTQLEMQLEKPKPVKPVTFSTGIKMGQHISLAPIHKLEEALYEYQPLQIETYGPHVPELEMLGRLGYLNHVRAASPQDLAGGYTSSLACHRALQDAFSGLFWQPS
Description for CDK2/Cyclin E1 complex: as §2, §3, §4

Turning to `Cc1noc(C)c1-c1ccc2c(-c3nc(N[C@@H]4CNCC(C)(C)C4)ncc3C(F)(F)F)c[nH]c2n1` [Compound 115], the IC50 in assay [1] is less than 30 nM; against CDK2/Cyclin E1 complex, 100 to 500 nM; in the assay on HCC70 cells (Homo sapiens), less than 100 nM; in the assay on COV504 cells (Homo sapiens) it was less than 100 nM; in the assay with COV318 cells (Homo sapiens) it was less than 100 nM; in the assay with MB453 cells (Homo sapiens), less than 100 nM. Also, the IC50 at CDK9/Cyclin T1 complex is more than 500 nM; in assay [2] it was 100 to 500 nM.
`CNC(=O)[C@H]1CNC[C@@H](Nc2ncc(C(F)(F)F)c(-c3c[nH]c4nc(-c5c(C)noc5C)ccc34)n2)C1` [Compound 120]: the 50% inhibitory concentration (IC50) was less than 30 nM in assay [1]; more than 500 nM on CDK2/Cyclin E1 complex; 100 to 500 nM in the assay on HCC70 cells (Homo sapiens); 100 to 500 nM in the assay with COV504 cells (Homo sapiens); 500 to 1000 nM with COV318 cells (Homo sapiens); less than 100 nM with MB453 cells (Homo sapiens). Also, the concentration for half-maximal inhibition (IC50) (against CDK9/Cyclin T1 complex; in assay [2]) was more than 500 nM each time.
Regarding `C[C@@H]1CC[C@@H](Nc2ncc(C(F)(F)F)c(-c3c[nH]c4nc(-c5cnnn5C)ccc34)n2)CN1` [Compound 151, N-[(3R,6R)-6-methyl-3-piperidyl]-4-[6-(3-methyltriazol-4-yl)-1H-pyrrolo[2,3-b]pyridin-3-yl]-5-(trifluoromethyl)pyrimidin-2-amine], the IC50 is less than 30 nM in assay [1]; more than 500 nM against CDK2/Cyclin E1 complex; more than 1000 nM in the assay on HCC70 cells (Homo sapiens); more than 1000 nM in the assay on COV504 cells (Homo sapiens); more than 1000 nM in the assay on COV318 cells (Homo sapiens); 500 to 1000 nM in the assay with MB453 cells (Homo sapiens). Further, the IC50 (against CDK9/Cyclin T1 complex; in assay [2]) was more than 500 nM each time.
Regarding `Cc1noc(C)c1-c1ccc2c(-c3nc(N[C@H]4CCCNC4)ncc3C(F)(F)F)n[nH]c2n1` [Compound 118, 4-[6-(3,5-dimethylisoxazol-4-yl)-1H-pyrazolo-[3,4-b]-pyridin-3-yl]-N-[(3S)-3-piperidyl]-5-(trifluoromethyl)pyrimidin-2-amine], the IC50 was less than 30 nM in assay [1]; more than 500 nM against CDK2/Cyclin E1 complex; less than 100 nM in the assay with HCC70 cells (Homo sapiens); less than 100 nM in the assay on COV504 cells (Homo sapiens); 100 to 500 nM in the assay on COV318 cells (Homo sapiens); less than 100 nM in the assay on MB453 cells (Homo sapiens). The IC50 (against CDK9/Cyclin T1 complex; in assay [2]) was more than 500 nM throughout.
Consider `Cc1noc(C)c1-c1ccc2c(-c3nc(N[C@@H]4CN(C(=O)OC(C)(C)C)CC[C@@H]4C)ncc3C(F)(F)F)cn(S(=O)(=O)c3ccccc3)c2n1` (single isomer, unassigned) [Compound 143], for which the IC50 in assay [1] (setting [3]) was less than 30 nM; at CDK2/Cyclin E1 complex (setting [4]), more than 500 nM; in the assay with HCC70 cells (Homo sapiens) it was less than 100 nM; with COV504 cells (Homo sapiens), less than 100 nM; with COV318 cells (Homo sapiens), more than 1000 nM; with MB453 cells (Homo sapiens) it was less than 100 nM. Also, the IC50 (on CDK9/Cyclin T1 complex (setting [5]); in assay [2] (setting [6])) was more than 500 nM throughout.
For the compound `CO[C@H]1CNC[C@@H](Nc2ncc(C(F)(F)F)c(-c3c[nH]c4cc(-c5c(C)noc5C)ccc34)n2)C1` [Compound 131], the IC50 in assay [1] is less than 30 nM; against CDK2/Cyclin E1 complex, more than 500 nM; in the assay on HCC70 cells (Homo sapiens), 100 to 500 nM; in the assay on COV504 cells (Homo sapiens), less than 100 nM; in the assay with COV318 cells (Homo sapiens) it was 100 to 500 nM; in the assay with MB453 cells (Homo sapiens), less than 100 nM. Moreover, the IC50 (against CDK9/Cyclin T1 complex; in assay [2]) was more than 500 nM each time.
With `Cc1ncoc1-c1ccc2c(-c3nc(N[C@H]4CCCNC4)ncc3C(F)(F)F)c[nH]c2n1` [Compound 161, 4-[6-(4-methyloxazol-5-yl)-1H-pyrrolo[2,3-b]pyridin-3-yl]-N-[(3S)-3-piperidyl]-5-(trifluoromethyl)pyrimidin-2-amine], the IC50 in assay [1] is less than 30 nM; at CDK2/Cyclin E1 complex it was more than 500 nM; in the assay with HCC70 cells (Homo sapiens) it was less than 100 nM; with COV504 cells (Homo sapiens), less than 100 nM; in the assay on COV318 cells (Homo sapiens), 100 to 500 nM; with MB453 cells (Homo sapiens) it was less than 100 nM. The concentration for half-maximal inhibition (IC50) (against CDK9/Cyclin T1 complex; in assay [2]) was more than 500 nM each time.
Take `Cc1nnc(-c2ccc3c(-c4nc(N[C@H]5CC[C@H](C)NC5)ncc4C(F)(F)F)c[nH]c3n2)s1` [Compound 154, N-[(3S,6S)-6-methyl-3-piperidyl]-4-[6-(5-methyl-1,3,4-thiadiazol-2-yl)-1H-pyrrolo[2,3-b]pyridin-3-yl]-5-(trifluoromethyl)pyrimidin-2-amine]: the IC50 in assay [1] is less than 30 nM; against CDK2/Cyclin E1 complex it was more than 500 nM; with HCC70 cells (Homo sapiens), 100 to 500 nM; in the assay on COV504 cells (Homo sapiens), 100 to 500 nM; in the assay with COV318 cells (Homo sapiens), more than 1000 nM; with MB453 cells (Homo sapiens), more than 1000 nM. In addition, the IC50 (on CDK9/Cyclin T1 complex; in assay [2]) was more than 500 nM each time.
“(3S,4S)-tert-butyl 3-((4-(6-(3,5-dimethylisoxazol-4-yl)-1H-indol-3-yl)-5-(trifluoromethyl)pyrimidin-2-yl)amino)-4-methylpiperidine-1-carboxylate [Compound 135]”: the IC50 in assay [1] (setting [3]) is 30 to 100 nM; on CDK2/Cyclin E1 complex (setting [4]), more than 500 nM; in the assay with HCC70 cells it was 100 to 500 nM; with COV504 cells, less than 100 nM; in the assay on COV318 cells it was more than 1000 nM; in the assay on MB453 cells, less than 100 nM. Besides, the IC50 (on CDK9/Cyclin T1 complex (setting [5]); in assay [2] (setting [6])) was more than 500 nM each time.
As for `CO[C@@H]1CCNC[C@H]1Nc1ncc(C(F)(F)F)c(-c2c[nH]c3cc(-c4c(C)noc4C)ccc23)n1` (single isomer, unassigned) [Compound 127], the IC50 in assay [1] is less than 30 nM; against CDK2/Cyclin E1 complex, more than 500 nM; with HCC70 cells (Homo sapiens) it was more than 1000 nM; in the assay on COV504 cells (Homo sapiens) it was less than 100 nM; in the assay on COV318 cells (Homo sapiens), 100 to 500 nM; in the assay on MB453 cells (Homo sapiens), less than 100 nM. The IC50 (on CDK9/Cyclin T1 complex; in assay [2]) was more than 500 nM throughout.
Regarding `Cc1noc(C)c1-c1ccc2c(-c3nc(N[C@@H]4CNC[C@H](C(=O)N(C)C)C4)ncc3C(F)(F)F)c[nH]c2n1` [Compound 119, (3R,5S)-5-[[4-[6-(3,5-dimethylisoxazol-4-yl)-1H-pyrrolo[2,3-b]pyridin-3-yl]-5-(trifluoromethyl)pyrimidin-2-yl]amino]-N,N-dimethyl-piperidine-3-carboxamide], the IC50 in assay [1] was less than 30 nM; at CDK2/Cyclin E1 complex it was more than 500 nM; in the assay with HCC70 cells (Homo sapiens) it was less than 100 nM; in the assay with COV504 cells (Homo sapiens), less than 100 nM; in the assay with COV318 cells (Homo sapiens), more than 1000 nM; in the assay with MB453 cells (Homo sapiens), less than 100 nM. For the same compound, the IC50 (against CDK9/Cyclin T1 complex; in assay [2]) was more than 500 nM throughout.
On to `CNC(=O)[C@H]1CNC[C@@H](Nc2ncc(C(F)(F)F)c(-c3c[nH]c4cc(-c5c(C)noc5C)ccc34)n2)C1` [Compound 113], for which the IC50 in assay [1] was less than 30 nM; against CDK2/Cyclin E1 complex, more than 500 nM; in the assay with HCC70 cells (Homo sapiens) it was 500 to 1000 nM; in the assay on COV504 cells (Homo sapiens), 500 to 1000 nM; in the assay on COV318 cells (Homo sapiens), more than 1000 nM; with MB453 cells (Homo sapiens), 100 to 500 nM. The IC50 (against CDK9/Cyclin T1 complex; in assay [2]) was more than 500 nM throughout.
Regarding `Cc1noc(C)c1-c1ccc2c(-c3nc(N[C@H]4CCC(C)(C)NC4)ncc3C(F)(F)F)c[nH]c2n1` [Compound 116], the IC50 in assay [1] was less than 30 nM; at CDK2/Cyclin E1 complex, more than 500 nM; in the assay on HCC70 cells (Homo sapiens), less than 100 nM; in the assay with COV504 cells (Homo sapiens), less than 100 nM; with COV318 cells (Homo sapiens), less than 100 nM; in the assay with MB453 cells (Homo sapiens) it was less than 100 nM. Also, the IC50 (against CDK9/Cyclin T1 complex; in assay [2]) was more than 500 nM throughout.
Take `CC1(C)CC[C@H](Nc2ncc(C(F)(F)F)c(-c3c[nH]c4cc(-c5nccs5)ccc34)n2)CN1` [Compound 106, (S)—N-(6,6-dimethylpiperidin-3-yl)-4-(6-(thiazol-2-yl)-1H-indol-3-yl)-5-(trifluoromethyl)pyrimidin-2-amine]: the IC50 in assay [1] is less than 30 nM; on CDK2/Cyclin E1 complex it was more than 500 nM; with HCC70 cells (Homo sapiens) it was less than 100 nM; in the assay on COV504 cells (Homo sapiens), less than 100 nM; in the assay with COV318 cells (Homo sapiens), 100 to 500 nM; with MB453 cells (Homo sapiens) it was less than 100 nM. In addition, the IC50 (on CDK9/Cyclin T1 complex; in assay [2]) was more than 500 nM each time.
As for `Cc1nc(-c2ccc3c(-c4nc(N[C@H]5CCCNC5)ncc4C(F)(F)F)c[nH]c3n2)no1` [Compound 139, 4-[6-(5-methyl-1,2,4-oxadiazol-3-yl)-1H-pyrrolo[2,3-b]pyridin-3-yl]-N-[(3S)-3-piperidyl]-5-(trifluoromethyl)pyrimidin-2-amine], the IC50 in assay [1] is less than 30 nM; against CDK2/Cyclin E1 complex, more than 500 nM; in the assay on HCC70 cells (Homo sapiens), less than 100 nM; in the assay with COV504 cells (Homo sapiens), less than 100 nM; in the assay on COV318 cells (Homo sapiens) it was more than 1000 nM; in the assay with MB453 cells (Homo sapiens) it was less than 100 nM. Also, the IC50 (against CDK9/Cyclin T1 complex; in assay [2]) was more than 500 nM each time.
